Patent publication US9492789B2, “Draw solute for forward osmosis, forward osmosis water treatment device, and forward osmosis method for water treatment” (Samsung Electronics Co., Ltd., priority 2012, dated 2016)

Experiments:
[1] = Osmotic pressure analysis of osmosis draw solution by freezing point depression; assay type: physicochemical; conditions: draw solution concentration 10 wt %
Description: Osmosis draw solutions having the various concentrations shown in the following Table 1 are prepared, and the osmotic pressure of the osmosis draw solution including the NIPAam oligomer prepared from Examples 1 to 4 is analyzed using the osmotic pressure measurer according to a freezing point depression.

[2] = Solubility change of 10 wt % osmosis draw solution on slow heating (LCST, separation temperature, reversibility); assay type: physicochemical
Source text: Each osmosis draw solution including the compounds of Examples 1 to 5 and Comparative Examples 1 and 2 at a concentration of 10 wt % is slowly heated from room temperature, and the solubility change of the solution is observed according to the temperature. The term “lower critical solution temperature (LCST)” indicates the temperature at which the solution begins to suddenly turn opaque, and the term “separation temperature” indicates the temperature in which the solution begins to be precipitated.

For `C=CC(=O)NC(C)C` [Comparative Example 1, N-isopropylacrylamide], the “Osmotic pressure, Osmol concentration” value [1] was 738 mOsmol/kg, the “Osmotic pressure, atm (equivalents)” value [1] was 18 atm and the LCST ([2]; 10 wt % solution heated from room temperature, temperature at which solution begins to suddenly turn opaque) was 36-37 °C. For the same compound, the Reversibility ([2]; @ 25° C.) was “◯”.
